Test results from ChEMBL document CHEMBL1130649, “Rational design of a new series of mixed anti-HIV pronucleotides” (Bioorg Med Chem Lett, 1998).

Tests used:
CCRF-CEM [1] = assay: Compound was tested for cytotoxicity against HIV-1 in CEM/TK- cells; type: functional; conditions: Homo sapiens
CCRF-CEM [2] = assay: Compound was tested for inhibitory activity against HIV-1 replication in CEM/TK- cells; type: functional, cell-based; conditions: Homo sapiens
CEM-SS [3] = assay: Compound was tested for inhibitory activity against HIV-1 replication in CEM-SS cells; type: functional, cell-based; conditions: Homo sapiens
CEM-SS [4] = assay: Compound was tested for cytotoxicity against HIV-1 in CEM-SS cells; type: functional; conditions: Homo sapiens
[5] = Half-life in RPMI 1640 containing 10% heat inactivated fetal calf serum culture medium at step 1; type: ADME, Bos taurus; conditions: cattle
[6] = Half-life in total CEM cell extract at Step 1; type: ADME, CCRF-CEM; conditions: human

SMILES | CC50 (CCRF-CEM [1]) | IC50 (CCRF-CEM [2]) | IC50 (CEM-SS [3]) | CC50 (CEM-SS [4]) | half-life [5] | half-life [6]
Cc1cn([C@H]2C[C@H](N=[N+]=[N-])[C@@H](CO)O2)c(=O)[nH]c1=O [ZIDOVUDINE] | > 100 µM | > 100 µM | 0.006 µM | > 100 µM |  | 
Cc1cn([C@H]2C[C@H](N=[N+]=[N-])[C@@H](COP(=O)(OCCSC(=O)C(C)(C)C)Oc3ccccc3)O2)c(=O)[nH]c1=O (stereo partly specified) | > 10 µM | 3.5 µM | 0.001 µM | > 10 µM | 72 h | 1.2 h
Cc1cn([C@H]2C[C@H](N=[N+]=[N-])[C@@H](COP(=O)(OCCSC(=O)C(C)(C)C)Oc3ccc(CC(N)C(=O)O)cc3)O2)c(=O)[nH]c1=O.Cl (stereo partly specified) | 90 µM | 29 µM | 0.006 µM | > 90 µM | 86.4 h | 1.4 h
